According to US20210369740A1, “Synthesis of Anti-inflammatory and Anti-cancer Agents through Fungal Transformation of Mibolerone” (priority 2021, published 2021):
Structures can show the parent of a compound that is named as a salt. Where two headings read alike, the source gives them in different places.

Key:
T-cell proliferation = assay: T-Lymphocyte proliferation assay (PHA-activated PBMCs, Alamar blue); assay type: cell-based; details: human PBMC T-cells activated with phytohemagglutinin-L, 48 h, in vitro; for IC50: T-cell, read-out: IC50 against T-cell proliferation
TNF-α production = assay: Cytokine inhibition assay (TNF-α by ELISA in LPS-stimulated, PMA-differentiated THP-1 cells); assay type: cell-based, human; details: for IC50: Homo sapiens, read-out: IC50 against TNF-α production
[1] = test system: nitric oxide (NO) production; assay: Nitric oxide assay (LPS-induced J774.2 macrophages, Griess method); assay type: cell-based, mouse
[2] = molecular target: T1, human placental aromatase enzyme (Homo sapiens, UniProt P11511); assay: Human placental aromatase inhibition assay; assay type: biochemical
T1 construct: from tissue; host or cells: human placenta
T1 sequence (P11511 1-503): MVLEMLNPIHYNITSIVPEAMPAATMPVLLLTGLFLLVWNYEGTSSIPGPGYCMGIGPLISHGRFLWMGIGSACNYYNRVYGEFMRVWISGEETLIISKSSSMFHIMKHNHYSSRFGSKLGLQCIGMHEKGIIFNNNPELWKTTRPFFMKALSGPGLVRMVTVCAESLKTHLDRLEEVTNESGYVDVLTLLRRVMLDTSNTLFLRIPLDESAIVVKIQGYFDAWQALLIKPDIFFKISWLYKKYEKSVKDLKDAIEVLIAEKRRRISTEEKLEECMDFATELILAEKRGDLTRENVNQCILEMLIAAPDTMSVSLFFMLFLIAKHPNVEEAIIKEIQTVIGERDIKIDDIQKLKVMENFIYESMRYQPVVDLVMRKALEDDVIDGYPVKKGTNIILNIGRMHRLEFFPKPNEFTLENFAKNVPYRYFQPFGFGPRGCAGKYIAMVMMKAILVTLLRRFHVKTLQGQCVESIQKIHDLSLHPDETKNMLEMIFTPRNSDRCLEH

[3] = Cytotoxicity against BJ normal cell line; details: human, BJ normal human fibroblast cells
[4] = THP-1 cells differentiated with PMA, LPS-stimulated, 4 h, in vitro
[5] = J774.2 mouse macrophages, LPS-induced, in vitro, read-out: IC50 against nitric oxide (NO) production
[6] = testosterone to 17β-estradiol conversion, in vitro, read-out: IC50 against human placental aromatase enzyme
[7] = Mus musculus, J774.2, read-out: IC50 against nitric oxide (NO) production

| SMILES | IC50 (T-cell proliferation) [µM] | IC50 [1, 5] [µM] | IC50 against TNF-α production (TNF-α production; [4]) | IC50 [2, 6] [µM] | also measured |
| --- | --- | --- | --- | --- | --- |
| C[C@@H]1CC2=CC(=O)CC[C@@H]2[C@H]2CC[C@@]3(C)[C@@H](CC[C@]3(C)O)[C@@H]21 [Compound 1, Mibolerone] | 6.55 ± 0.6 | 46 ± 2.4 |  |  | IC50 (TNF-α production; [4]): 115.8 ± 0.7 µM; IC50 [2]: 0.372 ± 0.009 µM; IC50 [3]: 80 ± 2.1 µM |
| CC1=CC2=CC(=O)CC[C@@H]2[C@H]2CC[C@@]3(C)[C@@H](CC[C@]3(C)O)[C@H]12 [Compound 2, 17β-hydroxy-7α,17α-dimethylestr-4,6-diene-3-one] | 3.83 ± 0.3 | 54.4 ± 0.3 | inactive | 0.31 ± 0.028 |  |
| C[C@@H]1Cc2cc(O)ccc2[C@@H]2[C@@H]1[C@@H]1CC[C@](C)(O)[C@@]1(C)C[C@@H]2O [Compound 3, 11β,17β-dihydroxy-7α,17α-dimethyl-estra-1,3,5-triene-3-one] | 4.24 ± 0.2 |  | inactive | 0.317 ± 0.012 | IC50 [1, 7]: 49.1 ± 0.4 µM |
| C[C@@H]1C[C@H]2C[C@H](O)CC[C@]2(O)[C@H]2CC[C@@]3(C)[C@@H](CC[C@]3(C)O)[C@H]12 [Compound 4, 3α,10β,17β-trihydroxy-7α,17α-dimethyl-5α-estrane] |  |  |  | 0.072 ± 0.001 | IC50 against T-cell proliferation (T-cell proliferation): inactive; IC50 (TNF-α production; THP-1, 4 h): 28.5 ± 0.07 µM; IC50 [1, 7]: 58 ± 0.1 µM |
| C[C@@H]1C(=O)C2CC(=O)CC[C@@H]2[C@H]2CC[C@@]3(C)[C@@H](CC[C@]3(C)O)[C@@H]21 (stereo partly drawn) [Compound 5, 17β-hydroxy-7α,17α-dimethyl-5α-estrane-3,6-dione] |  | 52.7 ± 0.3 | inactive |  | IC50 against T-cell proliferation (T-cell proliferation): inactive; IC50 against human placental aromatase enzyme ([2]; testosterone to 17β-estradiol conversion, in vitro): inactive |
| CNC(=N)NCCC[C@H](N)C(=O)O [L-NMMA, NG-Monomethyl-L-arginine, monoacetate salt, reference compound] |  | 128.2 ± 0.8 |  |  |  |
| CC(=O)CCCCn1c(=O)c2c(ncn2C)n(C)c1=O [pentoxifylline, reference compound] |  |  |  |  | IC50 (TNF-α production; THP-1, 4 h): 341 ± 2.1 µM |
| C[C@]12C=CC(=O)C=C1CC[C@@H]1[C@@H]2[C@@H](O)C[C@@]2(C)[C@H]1CC[C@]2(O)C(=O)CO [prednisolone, reference compound] | 9.75 ± 0.03 |  |  |  |  |
